Measured values published in PMC10572602, “Molecular Mechanism of STIL Coiled-Coil Domain Oligomerization” (International Journal of Molecular Sciences, 2023).
Where two headings read alike, the source gives them in different places.

How the values were obtained:
[1] = ref [14]; cited from earlier work
Source text: Presumably, this is due to the disruption of the hydrophobic CC interactions upon mutation from the hydrophobic Leu to the charged Glu. […] Other ...

[2] = type: physicochemical; details: for Tm: CD 222 nm, Boltzmann fit
Source text: (§1) Next, we used circular dichroism (CD) spectroscopy to probe the secondary structures of these WT CCD peptide assemblies. […] The spectra all had minima at 208 and 222 nm indicative of largely α-helical structures. From the high-concentration spectra we estimated ≈47% helix. To compare how the stabilities of these helical assemblies changed with concentration, we followed the changes in MRE222 with temperature over the same concentration range (Figure 2D, Table S1). Sigmoidal curves indicative of cooperative unfolding were apparent at all concentrations, indicating a cooperatively folded, oligomeric species. […] The temperature-dependent CD measurements were performed to determine the oligomerization-dependent thermal stability of the CCD. […] CD spectra of the peptides were recorded using a J-810 spectropolarimeter (Jasco) in a 0.1 cm and 1 cm quartz cuvette for far-UV CD spectroscopy, in a spectral range of 190 nm to 260 nm. The buffer used in the CD measurements was 25 mM sodium phosphate buffer pH = 6.8 with ionic strength of 154 mM (adjected by NaCl). The thermal melting of all STIL CCD peptides were measured as described. The graphs were fitted to Boltzmann equation in order to generate the Tm. Normalization to mean residue ellipticity was performed. The 100% helicity was calculated (with normalization to the length of the peptide and the condition of the measurement) as MRE × 10^−3 of −38 (Deg × cm^2 × dmol^−1 × res^−1).

[3] = CD spectroscopy, helicity; type: physicochemical; details: 5 °C
Source text: as §1

[4] = target: T1, STIL CCD peptide (Homo sapiens, UniProt Q15468, L736E); assay: Fluorescence-based binding (micro-scale thermophoresis instrument), self-association; details: 5 µM labeled + unlabelled same peptide 9 nM–300 µM; 25 mM Na2PO4 pH 6.8, 5% DMSO
T1 construct: STIL CCD718–749 WT; made in house; host or cells: chemical synthesis (Fmoc-SPPS on rink amide, C-terminal amide)
T1 sequence (Q15468 718-749 L736E): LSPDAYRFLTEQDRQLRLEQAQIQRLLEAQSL

[5] = tested on: STIL CCD peptide; assay: AUC sedimentation velocity (SV), oligomeric state; type: physicochemical; details: for sw / mw (solution mass from c(s) fit) / f/f0 / sw(20,w) / oligomeric state (average number of monomers in the oligomer): AUC-SV, 60 krpm; for sw / mw (solution mass from c(s) fit) / oligomeric state (average number of monomers in the oligomer): 20 °C; for sw / mw (solution mass from c(s) fit) / f/f0 / sw(20,w): pH 6.8; for mw (solution mass from c(s) fit) / oligomeric state (average number of monomers in the oligomer): 95% confidence level; for oligomeric state (average number of monomers in the oligomer): continuous c(s), 25 mM sodium phosphate pH 6.8, NaCl
Protocol: Previously, we and others have shown by size-exclusion chromatography and multi-angle light scattering that the oligomerization of a STIL CCD peptide is concentration dependent. However, these studies were qualitative and the interaction was not quantified. To quantify the oligomerisation of the STIL CCD peptide, analytical ultracentrifugation (AUC) sedimentation velocity (SV) and sedimentation equilibrium (SE) experiments were performed (Figure 2A, Table 1 and Figures S4–S9, S18 and S19). AUC-SV experiments were conducted at several concentrations to explore how the oligomeric state changed with concentration in the low-to-high µM concentration range, and also to estimate the dissociation constants of the oligomerization of the STIL CCD peptide.
Analytical ultracentrifugation (AUC) experiments were carried out using a Beckman Optima XL-A or XL-I analytical ultracentrifuge. Measurements were performed at 20 °C unless otherwise stated, using an An-50 or An-60 rotor, in Sodium Phosphate Buffer pH 6.8 (25 mM Na2PO4 with addition of 137 mM NaCl, pH measured using Jenway (TM) 3510 benchtop and adjusted using 1M HCl and 1M NaOH solutions). The partial specific volume ( υ¯ ) for each peptide were calculated in Sedfit using values from Cohn and Edsall. The buffer densities and viscosities were calculated using UltraScan III [54].
Sedimentation velocity (SV) experiments were performed in EPON 2-channel centerpieces with quartz windows or aluminium centrepieces with sapphire windows. The samples were centrifuged at 50 or 60 krpm where stated, with absorbance measurements taken from a radial range of 5.7–7.3 cm. 120 scans were taken at 5 min intervals, the data were fit in Sedfit to a continuous c(s) distribution model at a 95% confidence level. The frictional ration and baseline were floated, and Time-invariant and Radial-invariant noise were fit. Initially data were fit between a range of Svedberg ratio of 0–15, but this was reduced to 0–3 for all data as there were no larger species. The residuals for each individual fit are shown in Figures S14–S17 as a bitmap in which the color indicates the difference between the model fit and the raw data over the radial range to which the data were fitted. The scans are in vertical chronological order.

L SPDAYRF LTEQDRQ LRLEQAQ IQRLLEA QSL-NH2 [STIL CCD718–749 L736E, STIL CCD peptide with destabilising L736E mutation; PDB 8oyk]
thermal stability of mutant peptide (in words) [1]: leads to a decrease in its thermal stability | Tm ([2]; 5 µM, sodium phosphate pH 6.8): 18±1 °C | Tm ([2]; 25 µM, sodium phosphate pH 6.8): 17±2 °C | Tm ([2]; 50 µM, 25 mM sodium phosphate pH 6.8, 154 mM NaCl): 10 ± 2 °C | Tm ([2]; 100 µM, sodium phosphate pH 6.8): 12±1 °C | concentration dependence of Tm / thermal stability (in words) ([2]; pH 6.8): No detectable change in the Tm at different L736E concentrations | concentration dependence of CD spectrum / helical folding (in words) ([3]; different peptide concentrations (WT 5–100 µM), pH 6.8): no concentration dependence | MRE222 nm ([3]; CD at 50 µM, 25 mM sodium phosphate pH 6.8, 154 mM NaCl): −23.3 kdeg cm^2 dmol^−1 res^−1 | % Helicity ([3]; from MRE222 (100% = −38), CD at 50 µM, 25 mM sodium phosphate pH 6.8, 154 mM NaCl): 62% | binding or oligomerization (in words) [4]: no binding or oligomerization | Oligomeric State (at 10 µM) ([5]; 10 µM): Monomer | sw ([5]; 10 µM): 0.590 S | mw (solution mass from c(s) fit) ([5]; 10 µM): 3849 Da | f/f0 ([5]; 10 µM): 1.460 | sw(20,w) ([5]; 10 µM): 0.608 S | oligomeric state (average number of monomers in the oligomer) ([5]; 10 µM, absorbance): 1.00 × monomer mass | oligomeric state (average number of monomers in the oligomer) ([5]; 10 µM, absorbance, listed as CCD718–749-L736E): 1 × monomer mass | oligomeric state (average number of monomers in the oligomer) ([5]; 10 µM, absorbance, listed as STIL-L736E): 1.0 × monomer mass | sw ([5]; 500 µM): 0.721 S | mw (solution mass from c(s) fit) ([5]; 500 µM): 3871 Da | f/f0 ([5]; 500 µM): 1.201 | sw(20,w) ([5]; 500 µM): 0.742 S | oligomeric state (average number of monomers in the oligomer) ([5]; 500 µM): 1 × monomer mass | oligomeric state (average number of monomers in the oligomer) ([5]; 500 µM, listed as STIL-L736E): 1.0 × monomer mass
